Drawing on ChEMBL document CHEMBL4190241, “Isolation of Premyrsinane, Myrsinane, and Tigliane Diterpenoids from Euphorbia pithyusa Using a Chikungunya Virus Cell-Based Assay and Analogue Annotation by Molecular Networking” (J Nat Prod, 2017), this text covers selectivity ratio, CC50 and EC50 for eleven compounds.

The nature of data set [1]: Selectivity index, ratio of CC50 for African green monkey Vero A cells to EC50 for Chikungunya virus Indian ocean strain 899 infected in African green monkey Vero A cells. It counts as toxicity. As to conditions: read-out: Ratio CC50/EC50.
The nature of data set [2]: Cytotoxicity against African green monkey Vero A cells assessed as reduction in cell viability after 6 to 7 days by MTS assay. It counts as cell-based. Particulars: chlorocebus sabaeus. Background: Tetrazolium assays rely on reduction of a dye to a coloured formazan, in cell work by metabolically active cells.
Another data set has as its system Chikungunya virus. Put plainly: Antiviral activity against Chikungunya virus Indian ocean strain 899 infected in African green monkey Vero A cells assessed as reduction in viral-induced cytopathic effect after 6 to 7 days by MTS/PMS assay. It counts as functional, organism-based. As to conditions: Indian ocean 899, Vero. (Damage to the host cells serves as the signal in cytopathic effect assays.)

`C=C(C)C1C=C[C@@H](OC(C)=O)[C@@]23CO[C@@](C)([C@H](OC(=O)c4ccccc4)[C@@]4(O)C[C@H](C)[C@H](OC(=O)CC)[C@@H]4[C@H]2OC(C)=O)[C@H]13` (stereo partly specified): in data set [1], the selectivity ratio is 1.9. Besides, in data set [2], the CC50 was found to be 158 µM. Also, in the data set on Chikungunya virus, the EC50 amounted to 84 µM.
Turning to `CCC(=O)O[C@@H]1[C@@H]2[C@@H](OC(=O)c3ccccc3)[C@]3(COC(C)=O)[C@H](O)C[C@H]4[C@@H]([C@H]3[C@](C)(O)C(=O)[C@@]2(OC(C)=O)C[C@@H]1C)C4(C)C`, in data set [1], the selectivity ratio amounted to 5.8. The CC50 in data set [2] was determined as 63.5 µM. In the data set on Chikungunya virus, the EC50 stood at 11 µM.
Take `CCC(=O)O[C@@H]1[C@@H]2[C@@H](OC(=O)c3ccccc3)[C@@]3(COC(C)=O)[C@@H]([C@@H]4[C@H](C[C@H]3OC(C)=O)C4(C)C)[C@](C)(CC(C)=O)C(=O)[C@@]2(O)C[C@@H]1C`: the EC50 in the data set with Chikungunya virus was above 144 µM.
`CC(=O)OC[C@]12[C@H](OC(=O)c3ccccc3)[C@H]3[C@@H](OC(C)=O)[C@@H](C)C[C@]3(O)C(=O)[C@@](C)(OC(C)=O)[C@@H]1[C@@H]1[C@H](C[C@H]2OC(C)=O)C1(C)C`: the selectivity ratio in data set [1] amounted to 2.2. The CC50 in data set [2] turned out to be 171 µM. The EC50 with Chikungunya virus is 78 µM.
For `CC(=O)OCC1=C[C@H]2[C@@H]3C(C)(C)[C@]3(OC(=O)C(C)C(C)C)C[C@@H](C)[C@]2(O)[C@@H]2C=C(C)C(=O)[C@H]2C1` (stereo partly specified) the same measures were 10.6, 42.7 µM and 4 µM.
For the compound `CCC(=O)O[C@@H]1[C@@H]2[C@@H](OC(=O)C(C)CC)[C@@]3(COC(C)=O)[C@@H]([C@@H]4[C@H](C[C@H]3OC(C)=O)C4(C)C)[C@](C)(OC(C)=O)C(=O)[C@@]2(O)C[C@@H]1C` (stereo partly specified), in data set [1], the selectivity ratio was 2.2. In data set [2], the CC50 worked out at 153 µM. The EC50 in the data set on Chikungunya virus is 107 µM.
For `CCN(CC)CCCC(C)Nc1ccnc2cc(Cl)ccc12` (stereo unspecified) [CHLOROQUINE], in data set [2], the CC50 is 89 µM. Moreover, the EC50 in the data set on Chikungunya virus came to 11 µM.
Turning to `CCC(C)C(=O)O[C@@H]1[C@H]2[C@@H](OC(C)=O)[C@@H](C)C[C@]2(O)C(=O)[C@@](C)(OC(C)=O)[C@@H]2[C@@H]3[C@H](C[C@@H](OC(C)=O)[C@@]12COC(C)=O)C3(C)C` (stereo partly specified), in data set [1], the selectivity ratio is below 5. Further, in data set [2], the CC50 is above 157 µM. In the data set on Chikungunya virus, the EC50 is above 50 µM.
Take `CC(=O)OCC1=C[C@H]2[C@@H]3C(C)(C)[C@]3(OC(=O)C(C)C(C)C)C[C@@H](C)[C@]2(O)[C@@H]2C=C(C)C(=O)[C@@H]2C1` (stereo partly specified): the EC50 in the data set on Chikungunya virus is above 11 µM.
For the compound `CCC(=O)O[C@@H]1[C@@H]2[C@@H](OC(=O)c3ccccc3)[C@@]3(COC(C)=O)[C@@H]([C@@H]4[C@H](C[C@H]3OC(C)=O)C4(C)C)[C@](C)(OC(=O)c3cccnc3)C(=O)[C@@]2(O)C[C@@H]1C`, in data set [1], the selectivity ratio is below 2.4. In addition, the CC50 in data set [2] was above 159 µM. The EC50 in the data set with Chikungunya virus is above 107 µM.
For `CC(=O)OC[C@]12[C@H](OC(=O)c3ccccc3)[C@H]3[C@@H](OC(C)=O)[C@@H](C)C[C@]3(OC(C)=O)C(=O)[C@@](C)(O)[C@@H]1[C@@H]1[C@H](C[C@H]2OC(C)=O)C1(C)C`, the EC50 with Chikungunya virus is above 152 µM.

Usually CC50 stands for the concentration giving 50% cytotoxicity. One may read the EC50 as the concentration that produces a half-maximal response.
